According to patent US12195463B2 (priority 2018, dated 2025):

Tests used:
SERT = SERT (Homo sapiens, UniProt P31645); assay: biochemical; type: binding
D1 = D1 (Homo sapiens, UniProt P21728); settings: qualitative statement
D2 = D2 (Homo sapiens, UniProt P14416); settings: qualitative statement
Sequence of D2 (P14416 1-414 isoform P14416-2): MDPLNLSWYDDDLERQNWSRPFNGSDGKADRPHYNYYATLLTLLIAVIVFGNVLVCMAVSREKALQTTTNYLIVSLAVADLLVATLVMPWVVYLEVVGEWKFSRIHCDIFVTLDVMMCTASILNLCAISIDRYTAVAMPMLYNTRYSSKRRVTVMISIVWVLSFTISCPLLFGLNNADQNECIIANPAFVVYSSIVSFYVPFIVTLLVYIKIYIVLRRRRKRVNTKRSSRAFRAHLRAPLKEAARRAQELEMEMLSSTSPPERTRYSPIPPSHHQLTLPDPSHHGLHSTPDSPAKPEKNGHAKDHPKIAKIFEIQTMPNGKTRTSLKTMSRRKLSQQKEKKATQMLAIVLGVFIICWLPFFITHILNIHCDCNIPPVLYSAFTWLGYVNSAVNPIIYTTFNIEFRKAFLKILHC

Sequence of SERT (P31645 whole entry, species assumed): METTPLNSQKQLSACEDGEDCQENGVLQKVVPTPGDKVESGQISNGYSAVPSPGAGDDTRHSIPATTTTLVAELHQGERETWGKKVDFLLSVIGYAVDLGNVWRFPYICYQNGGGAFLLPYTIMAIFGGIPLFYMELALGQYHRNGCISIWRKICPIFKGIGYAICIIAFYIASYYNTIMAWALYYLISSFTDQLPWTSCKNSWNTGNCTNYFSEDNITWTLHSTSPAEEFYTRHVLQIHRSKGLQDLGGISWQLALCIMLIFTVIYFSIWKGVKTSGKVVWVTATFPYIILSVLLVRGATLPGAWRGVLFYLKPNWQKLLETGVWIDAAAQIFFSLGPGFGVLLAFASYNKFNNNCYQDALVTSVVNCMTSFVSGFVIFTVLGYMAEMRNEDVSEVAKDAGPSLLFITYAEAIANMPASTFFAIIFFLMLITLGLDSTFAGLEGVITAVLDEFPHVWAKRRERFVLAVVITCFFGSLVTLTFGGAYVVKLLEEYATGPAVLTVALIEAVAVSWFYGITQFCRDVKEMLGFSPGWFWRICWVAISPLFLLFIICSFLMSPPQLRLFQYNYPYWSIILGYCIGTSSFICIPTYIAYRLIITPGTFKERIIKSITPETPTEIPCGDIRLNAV
Sequence of D1 (P21728 whole entry): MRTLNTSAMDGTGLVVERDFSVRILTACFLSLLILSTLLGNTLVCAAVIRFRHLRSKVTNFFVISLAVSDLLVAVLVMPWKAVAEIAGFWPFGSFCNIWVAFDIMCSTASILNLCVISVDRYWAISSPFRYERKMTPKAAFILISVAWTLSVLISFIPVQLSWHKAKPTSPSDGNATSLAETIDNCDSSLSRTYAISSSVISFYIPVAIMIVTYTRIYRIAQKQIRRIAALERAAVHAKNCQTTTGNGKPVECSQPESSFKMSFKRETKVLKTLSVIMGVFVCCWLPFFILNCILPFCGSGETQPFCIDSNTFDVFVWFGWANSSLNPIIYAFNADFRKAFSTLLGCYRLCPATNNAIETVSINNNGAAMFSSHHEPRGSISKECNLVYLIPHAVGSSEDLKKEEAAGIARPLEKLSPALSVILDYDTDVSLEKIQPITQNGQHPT

With `O=C1CN2c3c(cccc3[C@@H]3CN(CCCOc4ccc(F)cc4)CC[C@@H]32)N1` [Compound A, reference compound] as the compound, how does the Ki (SERT; read-out: Ki (nM) or maximum inhibition) read?
Its Ki is ≤ 600 nM.

For `O=C1CN2c3c(cccc3[C@H]3CN(CCCOc4ccc(F)cc4)CC[C@H]32)N1` [Example 1, (6bS,10aR)-8-(3-(4-fluorophenoxy)propyl)-6b,7,8,9,10,10a-hexahydro-1H-pyrido[3′,4′:4,5]pyrrolo[1,2,3-de]quinoxalin-2(3H)-one], which “SERT activity, in words” value (SERT; qualitative statement) is on record?
The value was “no SERT activity”.

What about the “D1 receptor binding, in words” value (D1) of the same compound?
Its value is “moderately strong D1 receptor binding”.

And the “D2 affinity, in words” value (D2)?
The value was “weak D2 affinity”.
